Data taken from article PMC12299813, “Combined Metabolomics and Network Pharmacology to Reveal Anti-Diabetic Mechanisms and Potential Pharmacological Components of Synsepalum dulcificum” (Plants, 2025).

Target: α-glucosidase
Assay: α-glucosidase inhibition assay (PNPG method)
Assay type: biochemical, yeast
Details: acarbose positive control, three repetitions, read-out: IC50 ± SD of α-glucosidase inhibition, S. dulcificum components
Excerpt: Ultrapure water was obtained using the UP series ultrapure water system (Chengdu, China). […] HPLC-grade formic acid was purchased from Shanghai Aladdin Biochemical Technology Co., Ltd. (Shanghai, China). HPLC-grade methanol and acetonitrile were purchased from Merck (Darmstadt, Germany). Di-methyl sulfoxide (DMSO) was purchased from Tianjin Dama Chemical Reagent Factory (Tianjin, China). Disodium hydrogen phosphate was purchased from Guangdong Guanghua Technology Co., Ltd. (Shantou, China). Other analytical-grade chemicals and reagents, such as sodium chloride and anhydrous ethanol, were obtained from Sichuan Xilong Scientific Co., Ltd. (Chengdu, China).
Soak the crushed stems, leaves, and fruits of S. dulcificum in methanol for 24 h, then extract the chemical components using ethyl acetate. After that, concentrate the extract using a rotary vacuum evaporator, repeating the extraction three times to obtain the crude extracts, which are then prepared at concentrations of 0.5, 1, 8, and 16 mg/mL, respectively, for subsequent inhibition experiments.
The assay was conducted following a previously described method, and made some minor adjustments. Briefly, 0.1 M phosphate-buffered saline (PBS, pH 6.9) was used to prepare standard sample solutions of different concentrations, α-glucosidase (1 U/mL), and p-nitrophenyl-α-D-glucopyranoside (α-PNPG, 5 mM). A mixture of the sample (50 μL) and α-glucosidase (50 μL) was incubated at 37 °C for 10 min, followed by the addition of 50 μL of PNPG and further incubation at 37 °C for 20 min. Finally, 100 μL of Na2CO3 (0.1 M) was added to terminate the reaction after incubating at 37 °C for 10 min. […] The experiment was set up with three repetitions, and the IC50 values were determined.

Q: With `C=C(C)[C@@H]1CC[C@]2(C(=O)O)CC[C@]3(C)[C@H](CC[C@@H]4[C@@]5(C)CC[C@H](O)C(C)(C)[C@@H]5CC[C@]43C)[C@@H]12` [Betulinic acid] as the compound, how does the IC50 read?
A: The IC50 was 0.07 ± 0.02 mM.

Q: With `C[C@H]1[C@H](C)CC[C@]2(C(=O)O)CC[C@]3(C)C(=CC[C@@H]4[C@@]5(C)C[C@@H](O)[C@H](O)C(C)(C)[C@@H]5CC[C@]43C)[C@H]12` [Corosolic acid] as the compound, how does the IC50 read?
A: The IC50 was 2.12 ± 0.44 mM.

Q: Which IC50 does the source give for `COC(=O)c1cc(O)c(O)c(O)c1` [Methyl gallate] here?
A: Its IC50 is 4.18 ± 1.09 mM.

Q: For `CC(C)=CCC/C(C)=C/CC/C(C)=C/CC/C=C(\C)CC/C=C(\C)CCC=C(C)C` [Squalene], which IC50 is on record?
A: Its IC50 is 55.1 ± 1.8 mM.

Q: With `CC[C@H](/C=C/[C@@H](C)[C@H]1CC[C@H]2[C@@H]3CC=C4C[C@@H](O)CC[C@]4(C)[C@H]3CC[C@]12C)C(C)C` [Stigmasterol] as the compound, how does the IC50 read?
A: Its IC50 is 2.11 ± 0.24 mM.

Q: For `COc1cc(/C=C/CO)cc(OC)c1O[C@@H]1O[C@H](CO)[C@@H](O)[C@H](O)[C@H]1O` [Syringin], which IC50 is on record?
A: Its IC50 is 5.4 ± 1.2 mM.

Tested on: not given
Assay: not given
Design: method as in doi:10.1016/j.jtice.2010.05.008
Details: isolated from the stem of SD; cited from earlier work

Q: Which “DPPH radical scavenging activity compared to positive control vitamin C” value does the source give for `COc1cc([C@H]2OC[C@H]3[C@@H]2CO[C@H]3c2cc(OC)c(O)c(OC)c2)cc(OC)c1O` [(+)-epi-syringaresinol] here?
A: Its value is “superior”.

Q: Which “DPPH radical scavenging activity compared to positive control vitamin C” value does the source give for `COc1cc([C@H]2OC[C@H]3[C@@H]2CO[C@@H]3c2cc(OC)c(O)c(OC)c2)cc(OC)c1O` [(+)-syringaresinol] here?
A: Its value is “superior”.

Tested on: type 2 diabetic albino rats
Assay: not given
Design: method as in PMID 28917550
Details: cited from earlier work

Q: Which blood glucose levels does the source give for `COc1ccc(Cl)cc1C(=O)NCCc1ccc(S(=O)(=O)NC(=O)NC2CCCCC2)cc1` [glibenclamide] here?
A: Its blood glucose levels is “significantly lowered”.
